Experimental data from patent US10406135B2, “Compositions containing isosorbide monoester and alcohols that contain at least one aromatic group” (Clariant International Ltd., priority 2011, dated 2019).
Read-outs that look alike come from different tables or passages of the source. Blank lines part the entries; values can stand above or below the compound they belong to.

Legend:
[1] = tested on: bacteria, fungi and yeasts; conditions: general statement, no test described, cited from earlier work
Pseudomonas oleovorans = assay: Antimicrobial efficacy, minimum inhibitory concentration (MIC) in agar; assay type: cell-based; conditions: Ectopseudomonas oleovorans, CASO agar pH 7, read-out: MIC of isosorbide
Experimental: (§1) Below, the antimicrobial efficacy of a composition according to the invention consisting of 50% by weight of isosorbide caprylate 1 and 50% by weight of phenoxyethanol against bacteria, fungi and yeasts is examined (hereinbelow, the composition is referred to as “composition A”). For the tests with bacteria, composition A was diluted with butyl polyglycol and then, at 50° C., added to liquid CASO agar (casein-peptone agar) buffered to pH 7 (+/−0.2) in various concentrations (hereinbelow referred to as compositions B1, B2, etc.). […]
(§2) The minimum inhibitory concentrations for the pure substances isosorbide caprylate 1 and phenoxyethanol were determined analogously.
(§3) The values determined for the minimum inhibitory concentrations “MIC mixture”, stated in Table 1 below, are based on the concentrations of composition A.
(§4) The values determined for the minimum inhibitory concentrations “QA” and “QB”, stated in Table 1 below, have already been corrected for the dilution effect of the butyl polyglycol. […]
(§5) Analogously to the determination of the antimicrobial activity according to the above example B), the antimicrobial activity of a mixture comprising, firstly, 89.6% by weight of isosorbide dicaprylate and 9.4% by weight of isosorbide monocaprylate (remainder: 1% by weight) (hereinbelow referred to as “isosorbide dicaprylate”) and, secondly, pure isosorbide was determined in further test series.

Staphylococcus aureus = assay: as above; assay type: cell-based; conditions: CASO agar pH 7, read-out: MIC of isosorbide
Experimental: as §1, §2, §3, §4, §5

Escherichia coli = assay: as above; assay type: cell-based; conditions: CASO agar pH 7, read-out: MIC of isosorbide
Experimental: (§6) Below, the antimicrobial efficacy of a composition according to the invention consisting of 50% by weight of isosorbide caprylate 1 and 50% by weight of phenoxyethanol against bacteria, fungi and yeasts is examined (hereinbelow, the composition is referred to as “composition A”). For the tests with bacteria, composition A was diluted with butyl polyglycol and then, at 50° C., added to liquid CASO agar (casein-peptone agar) buffered to pH 7 (+/−0.2) in various concentrations (hereinbelow referred to as compositions B1, B2, etc.). For the tests with fungi and yeasts, composition A was diluted with butyl polyglycol and then added to liquid Sabouraud 4% dextrose agar buffered to pH 5.6 (+/−0.2) in various concentrations (hereinbelow referred to as compositions PH1, PH2, etc.). The compositions B1, B2, etc. and PH1, PH2 etc. were each poured into Petri dishes and each inoculated with identical amounts of bacteria, fungi and yeasts. The minimum inhibitory concentration (MIC) is the concentration at which inhibition of the growth of the bacteria, fungi and yeasts in the compositions B1, B2, etc. and PH1, PH2, etc. occurs.
(§7) The minimum inhibitory concentrations for the pure substances isosorbide caprylate 1 and phenoxyethanol were determined analogously. […]
as §4, §5

Fusarium solani = assay: as above; assay type: cell-based; conditions: Sabouraud 4% dextrose agar pH 5.6, read-out: MIC of isosorbide
Experimental: as §6, §7, §4, §5

Pseudomonas aeruginosa = assay: as above; assay type: cell-based; conditions: CASO agar pH 7, read-out: MIC of isosorbide
Experimental: as §6, §7, §4, §5

Klebsiella pneumoniae = assay: as above; assay type: cell-based; conditions: CASO agar pH 7, read-out: MIC of isosorbide
Experimental: as §6, §7, §4, §5

Enterobacter aerogenes = assay: as above; assay type: cell-based; conditions: Klebsiella aerogenes, CASO agar pH 7, read-out: MIC of isosorbide
Experimental: as §6, §7, §4, §5

Proteus vulgaris = assay: as above; assay type: cell-based; conditions: CASO agar pH 7, read-out: MIC of isosorbide
Experimental: as §6, §7, §4, §5

Candida albicans = assay: as above; assay type: cell-based; conditions: Sabouraud 4% dextrose agar pH 5.6, read-out: MIC of isosorbide
Experimental: as §6, §7, §4, §5

Penicillium funicolosium = assay: as above; assay type: cell-based; conditions: Sabouraud 4% dextrose agar pH 5.6, read-out: MIC of isosorbide
Experimental: as §6, §7, §4, §5

Citrobacter freundii = assay: as above; assay type: cell-based; conditions: CASO agar pH 7, read-out: MIC of isosorbide
Experimental: as §6, §7, §4, §5

Aspergillus terreus = assay: as above; assay type: cell-based; conditions: Sabouraud 4% dextrose agar pH 5.6, read-out: MIC of isosorbide
Experimental: as §6, §7, §4, §5

Aspergillus brasiliensis = assay: as above; assay type: cell-based; conditions: Sabouraud 4% dextrose agar pH 5.6, read-out: MIC of isosorbide
Experimental: as §6, §7, §4, §5

Penicillium minioluteum = assay: as above; assay type: cell-based; conditions: Talaromyces minioluteus, Sabouraud 4% dextrose agar pH 5.6, read-out: MIC of isosorbide
Experimental: as §6, §7, §4, §5

[2] = tested on: bacteria, fungi and yeasts; assay: Antimicrobial efficacy, summary statements over the organisms tested; assay type: cell-based
Experimental: Below, the antimicrobial efficacy of a composition according to the invention consisting of 50% by weight of isosorbide caprylate 1 and 50% by weight of phenoxyethanol against bacteria, fungi and yeasts is examined (hereinbelow, the composition is referred to as “composition A”). For the tests with bacteria, composition A was diluted with butyl polyglycol and then, at 50° C., added to liquid CASO agar (casein-peptone agar) buffered to pH 7 (+/−0.2) in various concentrations (hereinbelow referred to as compositions B1, B2, etc.). For the tests with fungi and yeasts, composition A was diluted with butyl polyglycol and then added to liquid Sabouraud 4% dextrose agar buffered to pH 5.6 (+/−0.2) in various concentrations (hereinbelow referred to as compositions PH1, PH2, etc.). […]
as §7, §5

Compound: CCCCCCCC(=O)O [caprylic acid]
antimicrobial activity (in words) ([1]; at a pH of 6 or above): no antimicrobial activity
antimicrobial activity (in words) [1]: antimicrobially effective

MIC (Pseudomonas oleovorans): 10000 µg/mL
MIC (Staphylococcus aureus): 10000 µg/mL
MIC (Escherichia coli): 10000 µg/mL
MIC (Fusarium solani): 10000 µg/mL
MIC (Pseudomonas aeruginosa): 10000 µg/mL
MIC (Klebsiella pneumoniae): 10000 µg/mL
MIC (Enterobacter aerogenes): 10000 µg/mL
MIC (Proteus vulgaris): 10000 µg/mL
MIC (Candida albicans): 10000 µg/mL
MIC (Penicillium funicolosium): 10000 µg/mL
MIC (Citrobacter freundii): 10000 µg/mL
MIC (Aspergillus terreus): 10000 µg/mL
MIC (Aspergillus brasiliensis): 10000 µg/mL
MIC (Penicillium minioluteum): 10000 µg/mL
Compound: O[C@@H]1CO[C@H]2[C@@H]1OC[C@@H]2O [isosorbide]
antimicrobial activity (in words) ([2]; summary of the MICs of Table 2): neither isosorbide nor isosorbide dicaprylate are antimicrobially active

Compound: isosorbide monocaprylate
antimicrobial activity (in words) ([2]; concluded from Tables 1 and 2, not tested as pure compound): significant antimicrobial activity
